# Source: ChEMBL document CHEMBL1122049, “Synthesis and in vitro antimicrobial activity of 5-substituted 2H-1,3,5-thiadiazine-2,4(3H)-diones” (1982)
# How the values were obtained:
# [1] = test system: Trichophyton benhamiae; assay: Minimum inhibitory concentration against Trichophyton mentagrophytes in Sabouraud dextrose broth by using […]; format: functional, Arthroderma benhamiae
# [2] = test system: Candida albicans; assay: Minimum inhibitory concentration against Candida albicans in Sabouraud dextrose broth by using […]; format: functional
MIC [1] [µg/mL],MIC [2] [µg/mL],Structure (SMILES)
125,> 250,O=c1nc(-c2ccc3c(c2)OCO3)sc(=O)[nH]1
< 2,> 250,Cc1ccc(-c2nc(=O)[nH]c(=O)s2)cc1
2,62,O=c1nc(-c2cccs2)sc(=O)[nH]1
4,15,O=c1nc(-c2ccc(Cl)cc2)sc(=O)[nH]1
15,81,CC(C)c1nc(=O)[nH]c(=O)s1
8,125,COc1ccc(-c2nc(=O)[nH]c(=O)s2)cc1
8,62,O=c1nc(Cc2cccnc2)sc(=O)[nH]1
62,> 125,CN(C)c1ccc(-c2nc(=O)[nH]c(=O)s2)cc1
< 2,15,O=c1nc(-c2ccco2)sc(=O)[nH]1
4,125,O=c1nc(Cc2ccc3c(c2)OCO3)sc(=O)[nH]1
< 2,31,CC(=O)c1ccc(-c2nc(=O)[nH]c(=O)s2)cc1
< 2,8,O=c1nc(-c2ccccc2)sc(=O)[nH]1
< 2,125,O=c1nc(Cc2ccccc2)sc(=O)[nH]1
4,1,Oc1c(I)cc(Cl)c2cccnc12 [CLIOQUINOL]
